[invAb] = inverted abasic unit; m = 2'-O-methyl; r = 2'-OH (RNA); f = 2'-fluoro
What follows are substances tested on ICAM-1 mRNA (assay: ICAM-1 mRNA knock-down in transfected Calu-1 cells (Taqman RT-PCR)). Conditions: Calu-1 cells, 10 nM siNA, 24 hrs post-transfection, mean ± S.D., relative to non-targeting control.
Type: cell-based, human
Experimental: Calu-1 (human; ATCC cat# HTB-54): Cells were cultured at 37° C. in the presence of 5% CO2 and grown in McCoy's 5a medium supplemented with fetal bovine serum at a final concentration of 10% and 100 μg/mL of streptomycin and 100 U/mL penicillin.
All transfections were performed using RNAiMax (Invitrogen Cat# 13778-150) as per the manufacturer's instructions.
Calu-1 cells were plated in all wells of a tissue-culture treated, 96-well plate at final counts of 5,000 cells/well in 100 μL of appropriate culture media. Cells were cultured for 24 hours after plating at 37° C. in the presence of 5% CO2.
After 24 hours, complexes containing siNA and RNAiMax were created as follows. A solution of RNAiMax diluted 33-fold in OPTI-MEM was prepared. In parallel, solutions of the siNAs for testing were prepared to a final concentration of 120 nM in OPTI-MEM. After incubation of RNAiMax/OPTI-MEM solution at room temperature for 5 min, an equal volume of the siNA solution and the RNAiMax solution were added together for each of the siNAs. […] This solution was incubated at room temperature for 20 minutes. After incubation, 20 uL of the solution was added to each of the relevant wells. The final concentration of siNA in each well was 10 nM and the final volume of RNAiMax in each well was 0.3 uL.
The time of incubation with the RNAiMax-siNA complexes was 24 hours, unless otherwise indicated. There was no change in media between the transfection and harvesting of the cells unless otherwise indicated.
Dose response curves were carried out in a similar fashion in 96-well plates, while maintaining a constant amount of RNAiMax in each transfection.
RNA was extracted from a 96-well plate using the TaqMan® Gene Expression Cells-to-CT™ Kit (Cat# 4399002) with a modified protocol. Briefly, a 60 uL (1 plate) or 110 uL (2 plates) of the Lysis Solution with DNase I was dispensed into each well of the Lysis Buffer Plate (twin.tec full skirt plate). The lysis buffer and stop plates were stored at 4° C. until the cells were washed.
The plate was spun at 1100 rpm for 5 minutes. The culture medium was aspirated and discarded from the wells of the culture plate. The lysis was performed automatically using a BioMek FX instrument and method. After the Biomek method was completed, the lysis plate was incubated for 2 min. at room temperature. The lysis plate can be stored for 2 hours at 4° C., or at −20° C. or −80° C. for two months.
Each well of the reverse transcription plate required 10 uL of 2× reverse transcriptase Buffer, 1 uL of 20× reverse transcription enzyme and 2 uL of nuclease-free water. The reverse transcription master mix was prepared by mixing 2× reverse transcription buffer, 20× reverse transcription enzyme mix, and nuclease-free water. 13 uL of the reverse transcription master mix was dispensed into each well of the reverse transcription plate (semi-skirted). A separate reverse transcription plate was prepared for each cell plate. The plate was loaded onto a Biomek NX or Biomek FX Dual-96 and the Biomek method was run. The program is programmed to automatically added 7 uL of lysate from the cell lysis procedure described above into each well of the reverse transcription plate. The plate is sealed and spun on a centrifuge (1000 rpm for 30 seconds) to settle the contents to the bottom of the reverse transcription plate. The plate is placed in a thermocycler at 37° C. for 60 min, 95° C. for 5 min, and 4° C. until the plate is removed from the thermocycler. Upon removal, if not used immediately, the plate was frozen at −20° C.
A series of probes and primers were used to detect the various mRNA transcripts of the genes of ICAM-1 and ICAM-2 in human cell lines (see Table 2). All the Taqman probes and primers for the experiments here-in described were supplied as pre-validated sets by Applied Biosystems, Inc., (see Table 2). The assays were performed on an ABI 7900 instrument, according to the manufacturer's instructions. […]

Row | Substance | % KD Human
1 | 48701-DC: siNA duplex, ICAM-1 target site 1505 (m); sense B AGuAcuGuAccAcucucAA TTB; antisense UUGAGAGuGGuAcAGuAcuUU (sense AGUACUGUACCACUCUCAATT; antisense UUGAGAGUGGUACAGUACUUU; sense: DNA at AGT, 2'-fluoro at CU, [invAb] at 5' end, 3' end, backbone not given here; antisense: sugars from the 5' end rrrmmmmfmmfmfmmfmffmm, backbone not given here) | 3 ± 17%
2 | 48723-DC: siNA duplex, ICAM-1 target site 390 (h); sense B cuGGcAAuGcccAGAcAuc TTB; antisense GAUGucuGGGcAuuGccAGUU (sense CUGGCAAUGCCCAGACAUCTT; antisense GAUGUCUGGGCAUUGCCAGUU; sense: DNA at AGT, 2'-fluoro at CU, [invAb] at 5' end, 3' end, backbone not given here; antisense: sugars from the 5' end rrrmfffmmmfmffmffmmmm, backbone not given here) | 68 ± 12%
3 | 48709-DC: siNA duplex, ICAM-1 target site 988 (m); sense B GGAccuuAAcAGucuAcAA TTB; antisense UUGuAGAcuGuuAAGGuccUU (sense GGACCUUAACAGUCUACAATT; antisense UUGUAGACUGUUAAGGUCCUU; sense: DNA at AGT, 2'-fluoro at CU, [invAb] at 5' end, 3' end, backbone not given here; antisense: sugars from the 5' end rrrfmmmffmffmmmmfffmm, backbone not given here) | 32 ± 14%
4 | 48710-DC: siNA duplex, ICAM-1 target site 1574 (m); sense B ccucGuGAuGGcAGccucu TTB; antisense AGAGGcuGccAucAcGAGGUU (sense CCUCGUGAUGGCAGCCUCUTT; antisense AGAGGCUGCCAUCACGAGGUU; sense: DNA at AGT, 2'-fluoro at CU, [invAb] at 5' end, 3' end, backbone not given here; antisense: sugars from the 5' end rrrmmffmffmffmfmmmmmm, backbone not given here) | 25 ± 5%
5 | 48719-DC: siNA duplex, ICAM-1 target site 1230 (h); sense B cAGuGAccAucuAcAGcuu TTB; antisense AAGcuGuAGAuGGucAcuGUU (sense CAGUGACCAUCUACAGCUUTT; antisense AAGCUGUAGAUGGUCACUGUU; sense: DNA at AGT, 2'-fluoro at CU, [invAb] at 5' end, 3' end, backbone not given here; antisense: sugars from the 5' end rrrffmfmmmfmmffmffmmm, backbone not given here) | 71 ± 9%
6 | 48711-DC: siNA duplex, ICAM-1 target site 1577 (m); sense B cGuGAuGGcAGccucuuAu TTB; antisense AUAAGAGGcuGccAucAcGUU (sense CGUGAUGGCAGCCUCUUAUTT; antisense AUAAGAGGCUGCCAUCACGUU; sense: DNA at AGT, 2'-fluoro at CU, [invAb] at 5' end, 3' end, backbone not given here; antisense: sugars from the 5' end rrrmmmmmffmffmffmfmmm, backbone not given here) | 42 ± 13%
7 | 48721-DC: siNA duplex, ICAM-1 target site 523 (h); sense B GuuGcuccuGccuGGGAAc TTB; antisense GUUcccAGGcAGGAGcAAcUU (sense GUUGCUCCUGCCUGGGAACTT; antisense GUUCCCAGGCAGGAGCAACUU; sense: DNA at AGT, 2'-fluoro at CU, [invAb] at 5' end, 3' end, backbone not given here; antisense: sugars from the 5' end rrrfffmmmfmmmmmfmmfmm, backbone not given here) | 56 ± 16%
8 | 48725-DC: siNA duplex, ICAM-1 target site 1143 (h); sense B cAGucAGuGuGAccGcAGA TTB; antisense UCUGcGGucAcAcuGAcuGUU (sense CAGUCAGUGUGACCGCAGATT; antisense UCUGCGGUCACACUGACUGUU; sense: DNA at AGT, 2'-fluoro at CU, [invAb] at 5' end, 3' end, backbone not given here; antisense: sugars from the 5' end rrrmfmmffmfmffmmffmmm, backbone not given here) | 53 ± 19%
9 | 29281-DC: siNA duplex, ICAM-1 target site 1650 (h); sense B cAGuGAcuGucAcucGAGA TTB; antisense UCUcGAGuGAcAGucAcuGUU (sense CAGUGACUGUCACUCGAGATT; antisense UCUCGAGUGACAGUCACUGUU; sense: DNA at AGT, 2'-fluoro at CU, [invAb] at 5' end, 3' end, backbone not given here; antisense: sugars from the 5' end rrrfmmmfmmfmmffmffmmm, backbone not given here) | 45 ± 21%
10 | 29289-DC: siNA duplex, ICAM-1 target site 2152 (h); sense B GGAGcAAGAcucAAGAcAu TTB; antisense AUGucuuGAGucuuGcuccUU (sense GGAGCAAGACUCAAGACAUTT; antisense AUGUCUUGAGUCUUGCUCCUU; sense: DNA at AGT, 2'-fluoro at CU, [invAb] at 5' end, 3' end, backbone not given here; antisense: sugars from the 5' end rrrffffmmmffffmffffmm, backbone not given here) | 78 ± 15%

— US20120004282A1, “RNA Interference Mediated Inhibition of the Intercellular Adhesion Molecule 1 (ICAM-1) Gene Expression Using Short Interfering Nucleic Acid (siNA)” (Merck Sharp & Dohme Corp,, priority 2009, published 2012)
